Experiment in all cases: MTT assay, growth inhibition by HDACi after 48 h
Assay type in all cases: cell-based
(Formazan colour is commonly taken as a measure of viable cells.)

The test system of test [1] is HCT116. The protocol:
(§1) HT29, HCT116, SW480, SW620 colon adenocarcinomas cell lines, 911 human embryonic retinal cell lines and HEK293, a human embryonic kidney cell line expressing the adenoviral E1 protein were purchased from ATCC (American Tissue Culture Collection, Manassas, Va., USA).
HCT116 were cultured, in Mc Coy's 5A mediums with 10% heat-inactivated-FBS.
(§2) First, three different histone deacetylase inhibitors: Trichostatin A (TSA), an hydroxamic acid; Valproic Acid (VPA), a short-chain aliphatic acid, and sodium butyrate (Nabu), a short-chain aliphatic acid, were evaluated for their ability to induce inhibition of the growth of these cells after 48 h of treatment using an MTT assay.

Test [2] deals with HT29.
Source text: as §1
HT29 and 911 were maintained in Dulbecco's modified Eagle's medium (DMEM; GIBCO) supplemented with 10% heat-inactivated fetal bovine serum (FBS; GIBCO).
as §2

The test system of test [3] is SW480. To be noted: SW480, 48 h of treatment. The protocol: as §1
(§3) The same medium was used for SW480 and SW620 supplemented with 1 mM Sodium Pyruvate (Invitrogen/GIBCO)
as §2

Test [4] relates to SW620. The protocol: as §1, §3, §2

For the compound `CCCC(=O)[O-].[Na+]` [Nabu, sodium butyrate], the IC50 in test [1] (Homo sapiens, HCT-116, HCT116, 48 h of treatment) worked out at 1000 µM; in test [2] (Homo sapiens, HT-29, HT29, 48 h of treatment), 4 mM; in test [3] (Homo sapiens) it was 7 mM; in test [4] (Homo sapiens, SW-620, SW620, 48 h of treatment) it was 3 mM.

For the compound `CC(/C=C/C(=O)NO)=C\[C@@H](C)C(=O)c1ccc(N(C)C)cc1` [TSA, Trichostatin A], the IC50 came out at 0.035 µM in test [1] (HCT116, 48 h of treatment); 0.00015 mM in test [2] (HT29, 48 h of treatment); 7.5e-05 mM in test [3]; 3.7e-05 mM in test [4] (SW620, 48 h of treatment).

The term IC50 denotes the concentration at which inhibition is half-maximal. Read a high IC50 as lower potency.

The record behind these values is US20140341857A1, “COMBINATION OF ONCOLYTIC AD[…] HISTONE DEACETYLASE INHIBITORS” (INSTITUT GUSTAVE ROUSSY, priority 2011, published 2014).
